Assay results from US9051351B2, “Hepatocyte growth factor mimics as therapeutic agents” (Washington State University, priority 2011, dated 2015).
“Also recorded” adds a separate entry of the source. Where a SMILES comes first, the peptide text is derived from it. [ ]: non-standard residue; d: D form. dNle = CCCC[C@@H](N)C(=O)O; Ahx = NCCCCCC(=O)O

Assays:
hippocampal neurons [1] = assay: Whole-cell recordings of mEPSCs in dissociated hippocampal neurons; assay type: cell-based, rat; conditions: Dihexa, Hinge 10^−12 M; HGF 10 ng/ml; 5 days
MDCK cells [2] = assay: Inhibition of HGF-dependent scattering in MDCK cells; assay type: cell-based, canine
Procedure: MDCK cells were grown to 100% confluency on the coverslips in six-well plates and washed twice with PBS. The confluent coverslips were then aseptically transferred to new six well plates containing 900 μl serum free DMEM. Norleual, Hinge peptide, and/or HGF (20 ng/ml) were added to appropriate wells. Control wells received PBS vehicle. Plates were incubated at 37° C. with 5% CO2 for 48 hours. Media was removed and cells were fixed with methanol. Cells were stained with Diff-Quik Wright-Giemsa (Dade-Behring, Newark, Del.) and digital images were taken. Coverslips were removed with forceps and more digital images were captured. Pixel quantification of images was achieved using Image J and statistics were performed using Prism 5 and InStat v.3.05.
MDCK cells were grown to 100% confluency on the coverslips in six-well plates and washed twice with PBS. The confluent coverslips were then aseptically transferred to new six well plates containing 900 μl serum free DMEM. Norleual, Hinge peptide, and/or HGF (20 ng/ml) were added to appropriate wells. Control wells received PBS vehicle. Plates were incubated at 37° C. with 5% CO2 for 48 h. Media was removed and cells were fixed with methanol. […] Pixel quantification of images was achieved using Image J and statistics were performed using Prism 5 and InStat v.3.05 (GraphPad; San Diego, Calif.).

hippocampal neurons [3] = assay: Dendritic spine counts (spinogenesis) in mRFP-β-actin transfected dissociated hippocampal neurons; assay type: cell-based, rat
Procedure: Hippocampal neurons (2×10^5 cells per square cm) were cultured from P1 Sprague Dawley rats on plates coated with poly-L-lysine from Sigma (St. Louis, Mo.; molecular weight 300,000). […] Each experiment was repeated at least three times using independent culture preparations. […] Hippocampal neurons (2×10^5 cells per square centimeter) were cultured from P1-2 Sprague Dawley rats on plates coated with poly-L-lysine from Sigma (St. Louis, Mo.; molecular weight 300,000). Hippocampal neurons were maintained in Neurobasal A media from Invitrogen (Carlsbad, Calif.) supplemented with B27 from Invitrogen, 0.5 mM L-glutamine, and […] cytosine-D-arabinofuranoside from Sigma added at 2 days in vitro. Hippocampal neurons were then cultured a further 3-7 days, at which time they were either transfected or treated with various pharmacological reagents as described in the text or figure legends. Neurons were transfected with mRFP-β-actin on day in vitro 6 […] using LipofectAMINETM 2000 (Invitrogen) according to the manufacturer's protocol. […] On DIV7 the cells were treated with vehicle (H20) or peptides (as described in the text) added to media. […] Five 50 μm long segments of dendrite from at least 10 neurons per data point were analyzed for each data point reported. Each experiment was repeated at least three times using independent culture preparations. […] A target sequence for c-Met was designed using RNAi central design program (see the website located at […].edu/). The target sequence […] NO: 2) was inserted into pSUPER vector (Oligoengine, Seattle Wash.) which drives endogenous production of shRNA under the H1 promoter. The shRNA was transfected into cells using the lipofectamine method described above. Verification of receptor knockdown was done by creating a c-[…]-Myc tagged gene product using the Gateway cloning system (Invitrogen). The Met protein coding sequence was cloned from rat whole brain cDNA using primers obtained from Integrated DNA Technologies, Inc. The amplified product was gel purified and a band corresponding to 190 kDa band excised and cloned into a […] destination vector (Gateway). Hippocampal neurons (2×10^5 cells per square cm) were cultured from P1 Sprague Dawley rats on plates coated with poly-L-lysine from Sigma (St. Louis, Mo.; molecular weight […]).

scopolamine treated rats = assay: Morris water maze, scopolamine amnesia model; assay type: in vivo, rat; conditions: for mean latency to find the pedestal: icv, Dihexa, Hinge 300 pmol, scopolamine 70 nmol
Procedure: Swim speed was determined from these values.

human HGF = target: T1, human HGF (Homo sapiens, UniProt P14210); assay: HGF dimerization (PAGE, silver staining); assay type: biochemical; conditions: analog 10^−10 M, heparin, 30 minute incubation
T1 construct: purchased R&D Systems (Minneapolis, Minn.)
T1 sequence (P14210 32-728): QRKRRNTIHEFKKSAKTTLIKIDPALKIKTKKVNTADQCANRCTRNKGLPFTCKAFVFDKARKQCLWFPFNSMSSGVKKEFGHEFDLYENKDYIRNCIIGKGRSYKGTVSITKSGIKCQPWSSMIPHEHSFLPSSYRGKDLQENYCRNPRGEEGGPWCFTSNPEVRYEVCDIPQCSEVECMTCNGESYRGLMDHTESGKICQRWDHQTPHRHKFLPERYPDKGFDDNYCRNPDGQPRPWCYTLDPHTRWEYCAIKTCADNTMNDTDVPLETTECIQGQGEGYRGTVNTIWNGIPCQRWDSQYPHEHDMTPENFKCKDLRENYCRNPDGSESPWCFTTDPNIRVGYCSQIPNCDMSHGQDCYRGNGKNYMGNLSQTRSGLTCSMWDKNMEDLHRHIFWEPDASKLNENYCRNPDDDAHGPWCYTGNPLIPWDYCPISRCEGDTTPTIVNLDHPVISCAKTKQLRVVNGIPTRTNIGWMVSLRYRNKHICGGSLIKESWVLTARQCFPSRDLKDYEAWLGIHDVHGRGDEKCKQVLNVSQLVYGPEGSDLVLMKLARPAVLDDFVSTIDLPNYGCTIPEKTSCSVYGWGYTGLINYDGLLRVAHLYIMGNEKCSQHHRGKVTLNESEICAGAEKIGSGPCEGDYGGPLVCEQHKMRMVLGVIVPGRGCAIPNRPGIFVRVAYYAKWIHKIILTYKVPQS
Procedure: HGF dimerization was assessed using PAGE followed by silver staining (Kawas et al., 2011). Human HGF at a concentration of 0.08 ng/μl with or without 6-AH analogs was incubated with heparin at a final concentration of 5 μg/ml. Loading buffer was then added to each sample and the mixture separated by native PAGE using gradient Criterion XT precast gels (4-12% Bis-Tris; Biorad Laboratories, Hercules, Calif.). Next the gel was silver stained for the detection of the HGF monomers and dimers. Bands were quantitated from digital images using a UVP phosphoimager (Upland, Calif.).

[4] = system: B16-F10 murine melanoma cells; assay: B16-F10 melanoma lung colony formation; assay type: in vivo, mouse; conditions: C57BL/6 mice; daily IP 10 μg/kg/day or 100 μg/kg/day, 14 days
Procedure: Six to eight month old C57BL/6 mice were injected with 400,000 B16-F10 cells in 200 μl PBS by tail vein injection and subsequently received daily intraperitoneal injections of either D-Nle-X-Cys-NH—(CH2)5—CONH2 (10 μg/kg and 100 μg/kg) or a PBS vehicle control. Two weeks later, mice were anesthetized and lungs were perfused with PBS and removed. Photos were taken and lungs were solubilized in 1% Triton x-100, 20 mM Tris, 0.15 M NaCl, 2 mM EDTA, and 0.02% sodium azide. Samples were disrupted by sonication (Mixonix, Farmingdale, N.Y.) and spun. The supernatant was transferred to a 96 well plate and melanin absorbance at […] was measured using a plate reader.

MDCK cells [5] = assay: HGF-dependent MDCK cell proliferation (MTT); assay type: cell-based, canine; conditions: analog 10^−10M, HGF 10 ng/ml, 4 days
Procedure: 5000 MDCK cells were seeded into the wells of a 96 well plates in 10% FBS DMEM. To induce cellular quiescence, the cells were serum deprived for 24 h prior to initiating the treatments. Following serum starvation, 10 ng/ml HGF alone and with various concentrations of 6-AH analogs or PBS vehicle were added to the media. The cells were allowed to grow under these conditions for 4 days with a daily addition of 6-AH analogs. On the fourth day, 1 mg/ml of […] (MTT, Sigma-Aldrich) prepared in PBS was added to the cells and incubated for 4 h. Dimethyl sulfoxide diluted in a 0.01M glycine buffer was added to solubilize the cell membranes and the absorbance of reduced MTT in the buffer was quantitated at 590 nm using a plate reader (Biotek Synergy 2, Winooski, Vt.). HGF-dependent proliferation was determined by subtracting the basal proliferation (in the absence of HGF) from total proliferation rates in groups containing HGF.

[6] = Blood stability in heparinized rat blood; assay type: in vitro ADME; conditions: 37° C.; single phase exponential decay
Procedure: At the end of each incubation, 20 μL of […]

[7] = rat, in vivo, iv, 24 mg/kg
Procedure: Male Sprague-Dawley rats (250+ g) were allowed food (Harlan Teklad rodent diet) and water ad libitum in our AAALAC certified animal facility. Rats were housed in temperature-controlled rooms with a 12 h light/dark cycle. The right jugular veins of the rats were catheterized with sterile polyurethane Hydrocoat™ catheters (Access Technologies, Skokie, Ill., USA) under ketamine (Fort Dodge Animal Health, Fort Dodge, Iowa, USA) and isoflurane (Vet One™, MWI, Meridian, Id., USA) anesthesia. The catheters were exteriorized through the dorsal skin. The catheters were flushed with heparinized saline before and after blood sample collection and filled with heparin-glycerol locking solution (6 mL glycerol, 3 mL saline, 0.5 mL gentamycin (100 mg/mL), 0.5 mL heparin (10,000 u/mL)) when not used for more than 8 h. The animals were allowed to recover from surgery for several days before use in any experiment, and were fasted overnight prior to the pharmacokinetic experiment. […]
Pharmacokinetic analysis was performed using data from individual rats. The mean and standard deviation (SD) were calculated for the group. Noncompartmental pharmacokinetic parameters were calculated from serum drug concentration-time profiles by use of WinNonlin® software (Pharsight, Mountain View, Calif., USA).

| Molecule | mean frequency of mEPSCs (hippocampal neurons [1]) | inhibition of MDCK cell scattering by Hinge (MDCK cells [2]) | inhibition of HGF-, Nle1-AngIV- and Dihexa-induced spinogenesis by Hinge (hippocampal neurons [3]; Hinge 10^−12 M, HGF 10 ng/ml, Nle1-AngIV or Dihexa 10^−12 M) | effect of Hinge alone on spinogenesis (hippocampal neurons [3]; wide range of doses) | mean latency to find the pedestal (scopolamine treated rats; day one of training) | mean latency to find the pedestal (scopolamine treated rats; final day of training (day 8)) | mean latency to find the pedestal (scopolamine treated rats; fourth day of training) | latency to escape, Morris water maze (FIG. 21) (scopolamine treated rats; i.c.v. injections, 8 days of training) | inhibition of HGF dimerization (human HGF) | inhibition of HGF dimerization (human HGF; listed as Cys) | B16-F10 melanoma lung colonization [4] | inhibition of HGF-dependent MDCK cell proliferation (MDCK cells [5]) | stability t1/2 in heparinized rat blood [6] | inhibition of HGF dimerization (human HGF; listed as Tyr) | Cp^0 [7] | KE [7] |
| --- | --- | --- | --- | --- | --- | --- | --- | --- | --- | --- | --- | --- | --- | --- | --- | --- |
| Hinge: novel HGF antagonist Hinge (DYIRNC, SEQ ID NO: 3); elsewhere Hinge peptide (KDYIRN), the dimerization domain of HGF (Synthetic hinge peptide) [reference compound] | 4.51±0.47 | inhibit scattering of Madin-Darby canine kidney (MDCK) cells | effectively inhibit spine formation; also recorded: inhibits HGF-induced spinogenesis; also recorded: inhibits Nle1-AngIV-induced spinogenesis; also recorded: inhibits Dihexa-induced spinogenesis | no effect on spinogenesis over a wide range of doses; also recorded: does not affect spinogenesis | 111.1 s | 46.1 s | 78.3 s | no effect on learning | – | – | – | – | – | – | – | – |
| CCCC[C@@H](N)C(=O)N[C@@H](CS)C(=O)N[C@H](C(=O)NCCCCCC(N)=O)[C@@H](C)CC [D-Nle-Cys-Ile-NH—(CH2)5—CONH2] (H-[dNle]CI[Ahx]-NH2) | – | – | – | – | – | – | – | – | completely block HGF dimer formation | statistically different than the HGF treated group | suppressed pulmonary colonization; also recorded: radically prevented lung colonization; also recorded: obvious reduction in melanoma colonies | marked inhibitory activity | – | – | – | – |
| CCCC[C@@H](N)C(=O)N[C@@H](Cc1ccc(O)cc1)C(=O)N[C@H](C(=O)NCCCCCC(N)=O)[C@@H](C)CC (H-[dNle]YI[Ahx]-NH2) | – | – | – | – | – | – | – | – | completely block HGF dimer formation | – | – | marked inhibitory activity | 1.333 h | statistically different than the HGF treated group | 68.2 ± 32.2 ng/mL | 0.001 ± 0.0002 min⁻¹ |
